Article PMC8167934 (Cancer letters, 2021)

Key:
[1] = molecular target: thioesterase (TE) domain of FASN (Homo sapiens, UniProt P49327); assay: TE activity assay with recombinant TE; settings: recombinant TE 500 nM
breast cancer patients = assay: Retrospective EMR analysis of overall survival of breast cancer patients; type: in vivo, human
db/+ and db/db mice = settings: chronic use, cited from earlier work
MCF7/FASN cells = assay: Colony formation assay, MCF7 cells with ectopic FASN over-expression; type: cell-based, human; settings: ectopic FASN over-expression vs MCF7/Vec
M3K/Sh cells = assay: Colony formation assay, MCF7/AdVp3000 cells with FASN knockdown; type: cell-based, human; settings: FASN knockdown vs M3K/Scr
PARP1 expression = assay: Western blot analysis of PARP1 expression; type: cell-based, human; settings: MCF7, T47D, MDA-MB-231 and MDA-MB-468 cells, different concentrations
[2] = test system: NHEJ activity in MCF7 cells; assay: Host cell reactivation assay of NHEJ activity, MCF7; type: cell-based, human
[3] = test system: NHEJ activity in MDA-MB-468 cells; assay: Host cell reactivation assay of NHEJ activity, MDA-MB-468; type: cell-based, human; settings: 10 µM twice a day for three days
[4] = test system: homologous recombination activity; assay: Host cell reactivation assay of homologous recombination activity; type: cell-based, human; settings: 10 µM twice a day for three days
γ-H2AX in MCF7 cells = assay: γ-H2AX level; type: cell-based, human
[5] = test system: γ-H2AX in MDA-MB-468 cells; assay: γ-H2AX level; type: cell-based, human
MCF7 cells [6] = assay: Flow cytometry of apoptosis and cell cycle, MCF7; type: cell-based, human
MDA-MB-468 cells [7] = assay: Flow cytometry of apoptosis and cell cycle, MDA-MB-468; type: cell-based, human
MCF7 cells [8] = assay: Colony formation combination study with doxorubicin; type: cell-based, human; settings: combination with doxorubicin at potency ratios 50/50, 25/75, 75/25
MDA-MB-468 cells [9] = assay: as above; type: cell-based, human; settings: combination with doxorubicin at potency ratios 50/50, 25/75, 75/25
MCF7 cells [10] = assay: Colony formation combination with ionizing radiation, MCF7; type: cell-based, human; settings: pre-treated with 10 µM once a day for 3 days
MDA-MB-468 cells [11] = assay: Colony formation combination with ionizing radiation, MDA-MB-468; type: cell-based, human; settings: pre-treated with 10 µM once a day for 3 days
TNBC patients = settings: high dose omeprazole added to neoadjuvant TNBC treatment; cited from earlier work
[12] = users of the PPI vs non-PPI users
[13] = esomeprazole users vs omeprazole users, pairwise comparison
[14] = 10–20 mg users vs non-PPI users

thioesterase (TE) domain of FASN, sequence (P49327 2207-2511 limits assumed): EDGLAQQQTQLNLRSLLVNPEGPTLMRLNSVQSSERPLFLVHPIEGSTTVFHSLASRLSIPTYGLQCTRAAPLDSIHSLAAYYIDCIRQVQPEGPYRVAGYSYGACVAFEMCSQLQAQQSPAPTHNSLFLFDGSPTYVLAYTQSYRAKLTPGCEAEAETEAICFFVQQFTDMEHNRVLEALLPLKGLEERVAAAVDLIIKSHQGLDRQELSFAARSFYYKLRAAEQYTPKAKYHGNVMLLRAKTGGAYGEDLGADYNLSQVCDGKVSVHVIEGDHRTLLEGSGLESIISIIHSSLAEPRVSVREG

For `Cc1c(OCC(F)(F)F)ccnc1C[S@@+]([O-])c1nc2ccccc2[nH]1` [R-lansoprazole, dexlansoprazole], the “Inhibition of TE activity of FASN (Ki), enantiomer comparison” value [1] was “significantly more effective than the S-lansoprazole”.

In the case of `COc1ccnc(C[S+]([O-])c2nc3ccc(OC(F)F)cc3[nH]2)c1OC` (centres unmarked) [pantoprazole], the “Overall survival, univariate HR” value (breast cancer patients; [12]) is reported as 0.43.

In the case of `CC12C[C@@]34C=CC(=O)[C@@](C)(CCC(=O)Nc5c(O)ccc(C(=O)O)c5O)C3[C@H](CC1C4)O2` (some centres unmarked) [platensimycin], the Insulin sensitivity (db/+ and db/db mice; db/+ mice fed with high-fructose diet) is listed as “improved insulin sensitivity” and the Ambient glucose levels (db/+ and db/db mice; db/db mice) is listed as “reduced ambient glucose levels”.

In the case of `COc1ccc2nc([S@@+]([O-])Cc3ncc(C)c(OC)c3C)[nH]c2c1` [esomeprazole], the “Overall survival, multivariant HR” value (breast cancer patients; 20 mg users vs non-PPI users) is reported as 0.73, the “Overall survival, univariant HR” value (breast cancer patients; 20 mg users vs non-PPI users) is reported as 1.0 and the “Overall survival, multivariant HR” value (breast cancer patients; 40 mg users vs non-PPI users) is reported as 0.33. The “Overall survival, univariant HR” value (breast cancer patients; 40 mg users vs non-PPI users) was 0.3, the “Overall survival, multivariate HR” value (breast cancer patients; [13]) was 1.64 and the “Overall survival, univariate HR” value (breast cancer patients; [13]) was 1.62. For the same compound, the “Overall survival, univariate HR” value (breast cancer patients; [12]) was 0.52.

In the case of `Cc1c(OCC(F)(F)F)ccnc1C[S+]([O-])c1nc2ccccc2[nH]1` (centres unmarked) [lansoprazole], the “Lansoprazole resistance (relative resistance factor)” value (MCF7/FASN cells) is reported as “increased”, the “Lansoprazole resistance (relative resistance factor)” value (M3K/Sh cells) is reported as “reduced” and the PARP1 expression (PARP1 expression) is reported as “dose-dependently reduced”. The NHEJ activity ([2]; MCF7, 10 µM twice a day for three days) was “significantly reduced”, the “NHEJ activity with ectopic FASN over-expression” value ([2]; MCF7 cells over-expressing ectopic FASN) was “rescued NHEJ activity” and the NHEJ activity [3] was “significantly reduced”. The Homologous recombination activity [4] was “did not change”, the γ-H2AX level (γ-H2AX in MCF7 cells; MCF7, lansoprazole alone) was “increased γ-H2AX level in a dose-dependent manner” and the “γ-H2AX level at 4 hrs post-IR versus 1 hr” value (γ-H2AX in MCF7 cells; MCF7, lansoprazole pre-treatment, 5 Gy IR) was “no reduction”. For the same compound, the “Doxorubicin-induced γ-H2AX production” value (γ-H2AX in MCF7 cells; MCF7, lansoprazole with doxorubicin) was “synergistically increased”, the “Lansoprazole-induced γ-H2AX increase with ectopic FASN over-expression” value (γ-H2AX in MCF7 cells; over-expressing ectopic FASN) was “ablated” and the γ-H2AX level ([5]; MDA-MB-468, lansoprazole alone) was “increased γ-H2AX level in a dose-dependent manner”. For the same compound, the “γ-H2AX level at 4 hrs post-IR versus 1 hr” value ([5]; MDA-MB-468, lansoprazole pre-treatment, 5 Gy IR) was “no reduction”, the “Doxorubicin-induced γ-H2AX production” value ([5]; MDA-MB-468, lansoprazole with doxorubicin) was “synergistically increased” and the Apoptosis (MCF7 cells [6]) was “dose-dependently induced apoptosis”. For the same compound, the Apoptosis (MDA-MB-468 cells [7]; MDA-MB-468) was “dose-dependently induced apoptosis”, the “Cell cycle arrest phase” value (MDA-MB-468 cells [7]; MDA-MB-468, dose-dependent) was “S phase” and the Combination index (MCF7 cells [8]) was less than 1.0. For the same compound, the Combination index (MDA-MB-468 cells [9]) was less than 1.0, the “Sensitization to IR treatment” value (MCF7 cells [10]) was “sensitized” and the “Sensitization to IR treatment” value (MDA-MB-468 cells [11]) was “sensitized”. For the same compound, the “Overall survival, univariate HR” value (breast cancer patients; [12]) was 0.20.

In the case of `COc1ccc2[nH]c([S+]([O-])Cc3ncc(C)c(OC)c3C)nc2c1` (centres unmarked) [omeprazole], the “Overall survival, multivariant HR” value (breast cancer patients; 40 mg users vs non-PPI users) is reported as 0.12, the “Overall survival, univariant HR” value (breast cancer patients; 40 mg users vs non-PPI users) is reported as 0.21 and the “Overall survival, multivariant HR” value (breast cancer patients; [14]) is reported as 0.28. For the same compound, the “Overall survival, univariant HR” value (breast cancer patients; [14]) was 0.33, the “Overall survival, univariate HR” value (breast cancer patients; [12]) was 0.33 and the “FASN activities in tumors” value (TNBC patients) was “inhibited”. For the same compound, the Toxicity (TNBC patients) was “without adding toxicity” and the pCR rate (TNBC patients) was ~ 74%.
